The record followed here is paper PMC6145916, “Interaction of mitochondrial fission factor with dynamin related protein 1 governs physiological mitochondrial function in vivo” (Scientific Reports, 2018).

In one assay the test system is Mfn2. Briefly: Binding of recombinant Mfn2 to surface-conjugated P259 (AGILE-R100 graphene sensor). The settings on record: P259 surface-conjugated (50 nM), 100 nM protein, RIPA buffer pH 8.0; n = 3, with 3 replicates. Set-up: species or system human. An excerpt: Figure 1 Rational peptide design identifies a novel inhibitor of the Mff-Drp1 protein-protein interaction. (a) A scheme of the rationale behind the inhibitor design. […] Surface and ribbon diagrams of Drp1 structure (PDB, 4BEJ) with the GTPase, bundle signaling element (BSE), and stalk domains highlighted. (d) A heatmap representing sequence conservation of human proteins that contain a region similar to P259. Sequence conservation corresponds to the number of residues similar/identical to P259 from each sequence. […] The obtained graph is of the mean standardized response and ± s.e. as a function of time for n = 3 individual experiments, with 3 technical replicates each. […] Represented Western blot is cropped from a full blot shown in the Expanded Western Blots section of the Supplementary Information. (h) Relative GTPase activity of recombinant Drp1 in the presence of 1 µM of peptide (n = 3–5). Data are mean ± s.e. from 3–5 independent experiments per condition.
Drp1 and Mff. Utilizing BioPython, a pairwise alignment was performed between each ortholog […]
brief, an automated microwave peptide synthesizer (Liberty, CEM Corporation) was used to perform solid phase peptide synthesis by a series of coupling of fluorenylmethoxycarbonyl (Fmoc)-protected amino acids and hydroxybenz otriazol (HOBt) […] reaction steps. […]

The test system of assay [1] is neuroblastoma SH-SY5Y cells. Briefly: Mitochondrial morphology (Tom20 immunofluorescence), SH-SY5Y. It is filed as cell-based, human. The method, then: Represented Western blot is cropped from a full blot shown in the Expanded Western Blots section of the Supplementary Information. […] Hoechst 33342 is shown in blue and Tom20 in green (n = 3, 10 images each). Below, quantification of the form factor (degree of branching) and major axis length (length of mitochondria). At least 6,000 mitochondrial fragments were measured for each condition. Mitochondrial reactive oxygen species (ROS) production (MitoSox Red) (c) and mitochondrial membrane potential (TMRM) (d) after overnight treatment with indicated concentrations of peptide or FCCP. Data are from 3 independent experiments per condition normalized to the average no peptide value. (e) Relative mitochondrial ROS (MitoSox Red) signal in GFP positive cells expressing full-length or alanine-substituted P259 at indicated amino acids after two days of transfection. Values are normalized to a GFP empty vector (n = 3, with 3 replicates). […] Data are mean ± s.e. […]
Cells were fixed onto Permanox plastic slides with 4% paraformaldehyde in PBS for 10 minutes at room temperature. Cells were permeabilized in 0.1% Triton X-100 and 1% normal goat serum (blocking buffer) for one hour at room temperature. Permeabilized cells were incubated overnight with primary anti-Tom20 antibody (Santa Cruze Biotech, sc-11415, 1:250 dilution) in a humidified chamber. Slides were subsequently incubated with FITC-conjugated goat anti-rabbit IgG for two hours at room temperature in a light-shielding humidified chamber. Cells were washed with blocking buffer and stained with Hoechst 33342 (Invitrogen, OR, USA, […]). Coverslips were mounted with a Slowfade antifade solution (Invitrogen, OR, USA). Images were acquired using an LSM 700 confocal laser-s canning microsc ope equipped with a Plan Apochromat 63x/1.4 NA oil-immersion objective (Zeiss).
Mitochondrial morphology analysis
High-throughput image analysis of mitochondrial morphology was performed using MATLAB with the Image Processing toolkit. Background illumination, obtained by morphological opening of the image, was subtracted from the original image. The image was then passed through a top - hat transformation to highlight objects from the background followed by a pixel-wis e adaptive low-pas s Wiener filter to remove noise. A 90th percentile threshold was used to convert the image to a binary image. Erroneously large and small objects were removed from the image and morphological features were extracted from the binary objects. Major axis length is defined as th e length of the longest line that can be drawn through a binary object while the minor axis length is defined as the length of the shortest line. The aspect ratio is defined by the major axis length divided by the minor axis length. […]

Where [2] appears, read: 4 µM TAT-P259, 30-minute treatment, vs TAT, n = 3.

Where no end group is shown, it is not given here.

As for “YGRKKRRQRRRGSGIIQLPEIVVV-NH2 (C-terminus assumed) [P259]”, the “binding to Mfn2” value in the assay with Mfn2 is on record as “only negligible binding”. For the same substance, in assay [1] (setting [2]), the “form factor (degree of branching)” value was “higher form factors” and the major axis length result is “increased major axis lengths”. In assay [1] (4 µM TAT-P259 or 10 µM Mdivi-1, 30-minute treatment, n = 3, 10 images each), the mitochondrial morphology entry was “more elongated and branched mitochondria”.
